Test results taken from PubChem BioAssay AID1745844 (Carcinogenic Potency Database (CPDB), 2022).
The source made the active and inactive calls. How the calls were made is not given here.

System: rodent lifetime carcinogenesis bioassay, tumor incidence TD50
Assay: chronic cancer bioassays in animals – CPDB, compiled studies (AID 1745844)

C=CC(=O)NCO
TD50 (mouse, strain B6C3F1, females, by gavage, site: Harderian gland + liver + lung + ovary, lesion: adenoma + adenoma, bilateral + hepatocellular adenoma + alveolar/bronchiolar adenoma + alveolar/bronchiolar carcinoma + granulosa-, dosed 103 weeks, study length 105 weeks): 27.8 mg/kg/day
TD50 (mouse, strain B6C3F1, females, by gavage, site: Harderian gland, lesion: adenoma + adenoma, bilateral + carcinoma, dosed 103 weeks, study length 105 weeks): 44.6 mg/kg/day
TD50 (mouse, strain B6C3F1, females, by gavage, site: Harderian gland, lesion: adenoma + adenoma, bilateral, dosed 103 weeks, study length 105 weeks): 55.5 mg/kg/day
TD50 (mouse, strain B6C3F1, females, by gavage, site: any site (literature study), lesion: several types, types named in the paper, dosed 103 weeks, study length 105 weeks): 30.9 mg/kg/day
TD50 (mouse, strain B6C3F1, females, by gavage, site: liver, lesion: hepatocellular adenoma + hepatocellular carcinoma + neoplastic nodule, dosed 103 weeks, study length 105 weeks): 74.8 mg/kg/day
TD50 (mouse, strain B6C3F1, females, by gavage, site: liver, lesion: hepatocellular adenoma + hepatocellular carcinoma, dosed 103 weeks, study length 105 weeks): 74.8 mg/kg/day
TD50 (mouse, strain B6C3F1, females, by gavage, site: liver, lesion: hepatocellular adenoma, dosed 103 weeks, study length 105 weeks): 66.9 mg/kg/day
TD50 (mouse, strain B6C3F1, females, by gavage, site: lung, lesion: alveolar/bronchiolar adenoma + alveolar/bronchiolar carcinoma, dosed 103 weeks, study length 105 weeks): 111 mg/kg/day
TD50 (mouse, strain B6C3F1, females, by gavage, site: ovary, lesion: granulosa-cell tumor, benign, dosed 103 weeks, study length 105 weeks): 119 mg/kg/day
TD50 (mouse, strain B6C3F1, males, by gavage, site: Harderian gland + liver + lung, lesion: adenoma + hepatocellular adenoma + hepatocellular carcinoma + alveolar/bronchiolar adenoma + alveolar/bronchiolar carcinoma, dosed 103 weeks, study length 105 weeks): 13.3 mg/kg/day
TD50 (mouse, strain B6C3F1, males, by gavage, site: Harderian gland, lesion: adenoma + carcinoma, dosed 103 weeks, study length 105 weeks): 17.4 mg/kg/day
TD50 (mouse, strain B6C3F1, males, by gavage, site: Harderian gland, lesion: adenoma, dosed 103 weeks, study length 105 weeks): 17.5 mg/kg/day
TD50 (mouse, strain B6C3F1, males, by gavage, site: any site (literature study), lesion: several types, types named in the paper, dosed 103 weeks, study length 105 weeks): 22.3 mg/kg/day
TD50 (mouse, strain B6C3F1, males, by gavage, site: liver, lesion: hepatocellular adenoma + hepatocellular carcinoma + neoplastic nodule, dosed 103 weeks, study length 105 weeks): 29.4 mg/kg/day
TD50 (mouse, strain B6C3F1, males, by gavage, site: liver, lesion: hepatocellular adenoma + hepatocellular carcinoma, dosed 103 weeks, study length 105 weeks): 29.4 mg/kg/day
TD50 (mouse, strain B6C3F1, males, by gavage, site: liver, lesion: hepatocellular adenoma, dosed 103 weeks, study length 105 weeks): 50.2 mg/kg/day
TD50 (mouse, strain B6C3F1, males, by gavage, site: liver, lesion: hepatocellular carcinoma, dosed 103 weeks, study length 105 weeks): 63.4 mg/kg/day
TD50 (mouse, strain B6C3F1, males, by gavage, site: lung, lesion: alveolar/bronchiolar adenoma + alveolar/bronchiolar carcinoma, dosed 103 weeks, study length 105 weeks): 38.5 mg/kg/day
TD50 (mouse, strain B6C3F1, males, by gavage, site: lung, lesion: alveolar/bronchiolar adenoma, dosed 103 weeks, study length 105 weeks): 66 mg/kg/day
TD50 (mouse, strain B6C3F1, males, by gavage, site: lung, lesion: alveolar/bronchiolar carcinoma, dosed 103 weeks, study length 105 weeks): 75.1 mg/kg/day
carcinogen call (rat, strain Fischer 344, females, by gavage, site: any site (literature study), lesion: several types, types named in the paper, dosed 103 weeks, study length 105 weeks): negative (inactive)
TD50 (rat, strain Fischer 344, males, by gavage, site: any site (literature study), lesion: several types, types named in the paper, dosed 103 weeks, study length 105 weeks): 3120 mg/kg/day
TD50 (rat, strain Fischer 344, males, by gavage, site: skin, lesion: keratoacanthoma, dosed 103 weeks, study length 105 weeks): 13 mg/kg/day (inactive)

C[C@H]1CCCC(=O)CCC/C=C/c2cc(O)cc(O)c2C(=O)O1
TD50 (mouse, strain B6C3F1, females, in feed, site: any site (literature study), lesion: several types, types named in the paper, dosed 104 weeks, study length 105 weeks): 17.9 mg/kg/day
TD50 (mouse, strain B6C3F1, females, in feed, site: liver + pituitary gland, lesion: hepatocellular adenoma + hepatocellular carcinoma + adenoma, NOS + carcinoma, dosed 104 weeks, study length 105 weeks): 22 mg/kg/day
TD50 (mouse, strain B6C3F1, females, in feed, site: liver, lesion: hepatocellular adenoma + hepatocellular carcinoma + neoplastic nodule, dosed 104 weeks, study length 105 weeks): 38.8 mg/kg/day
TD50 (mouse, strain B6C3F1, females, in feed, site: liver, lesion: hepatocellular adenoma + hepatocellular carcinoma, dosed 104 weeks, study length 105 weeks): 38.8 mg/kg/day
TD50 (mouse, strain B6C3F1, females, in feed, site: liver, lesion: hepatocellular adenoma, dosed 104 weeks, study length 105 weeks): 50.1 mg/kg/day
TD50 (mouse, strain B6C3F1, females, in feed, site: pituitary gland, lesion: adenoma, NOS + carcinoma, dosed 104 weeks, study length 105 weeks): 32.3 mg/kg/day
TD50 (mouse, strain B6C3F1, females, in feed, site: pituitary gland, lesion: adenoma, NOS, dosed 104 weeks, study length 105 weeks): 37.4 mg/kg/day
TD50 (mouse, strain B6C3F1, males, in feed, site: pituitary gland, lesion: adenoma + carcinoma, dosed 104 weeks, study length 105 weeks): 49.1 mg/kg/day
TD50 (mouse, strain B6C3F1, males, in feed, site: pituitary gland, lesion: adenoma, dosed 104 weeks, study length 105 weeks): 53.3 mg/kg/day
TD50 (rat, strain Fischer 344, females, in feed, site: any site (literature study), lesion: several types, types named in the paper, dosed 104 weeks, study length 104 weeks): 80.9 mg/kg/day (inactive)
TD50 (rat, strain Fischer 344, females, in feed, site: liver, lesion: hepatocellular adenoma + hepatocellular carcinoma + neoplastic nodule, dosed 104 weeks, study length 104 weeks): 33.5 mg/kg/day
TD50 (rat, strain Fischer 344, males, in feed, site: any site (literature study), lesion: several types, types named in the paper, dosed 104 weeks, study length 104 weeks): 16.2 mg/kg/day (inactive)
TD50 (rat, strain Fischer 344, males, in feed, site: liver, lesion: hepatocellular adenoma + hepatocellular carcinoma + neoplastic nodule, dosed 104 weeks, study length 104 weeks): 950 mg/kg/day

O=C(O)CCC(=O)O
TD50 (rat, strain F344/DuCrj, females, in drinking water, site: any site (literature study), lesion: one or several types, types not named, dosed 104 weeks, study length 113 weeks): 4820 mg/kg/day (inactive)
carcinogen call (rat, strain F344/DuCrj, females, in drinking water, site: liver, lesion: one or several types, types not named, dosed 104 weeks, study length 113 weeks): negative (inactive)
carcinogen call (rat, strain F344/DuCrj, males, in drinking water, site: any site (literature study), lesion: one or several types, types not named, dosed 104 weeks, study length 113 weeks): negative (inactive)
carcinogen call (rat, strain F344/DuCrj, males, in drinking water, site: liver, lesion: hepatocellular adenoma, dosed 104 weeks, study length 113 weeks): negative (inactive)
TD50 (rat, strain F344/DuCrj, males, in drinking water, site: liver, lesion: hepatocellular carcinoma, dosed 104 weeks, study length 113 weeks): 54700 mg/kg/day (inactive)

Cc1ccc(NC(N)=O)cc1
carcinogen call (mouse, strain C57BL/6, females, in feed, site: liver, lesion: hepatocellular carcinoma, dosed 52 weeks, study length 69 weeks): negative (inactive)
carcinogen call (mouse, strain C57BL/6, females, in feed, site: lung, lesion: alveolar/bronchiolar adenoma, dosed 52 weeks, study length 69 weeks): negative (inactive)
TD50 (mouse, strain C57BL/6, males, in feed, site: all sites, lesion: malignant lymphoma, histiocytic type, dosed 52 weeks, study length 69 weeks): 265 mg/kg/day
TD50 (mouse, strain C57BL/6, males, in feed, site: all sites, lesion: malignant lymphoma, dosed 52 weeks, study length 69 weeks): 206 mg/kg/day
TD50 (mouse, strain C57BL/6, males, in feed, site: liver, lesion: hepatocellular carcinoma, dosed 52 weeks, study length 69 weeks): 722 mg/kg/day (inactive)
carcinogen call (mouse, strain C57BL/6, males, in feed, site: lung, lesion: alveolar/bronchiolar adenoma, dosed 52 weeks, study length 69 weeks): negative (inactive)
TD50 (mouse, strain C57BL/6, males, in feed, site: mesenteric lymph node, lesion: malignant lymphoma, histiocytic type, dosed 52 weeks, study length 69 weeks): 626 mg/kg/day
TD50 (mouse, strain C57BL/6, males, in feed, site: multiple organs, lesion: malignant lymphoma, histiocytic type, dosed 52 weeks, study length 69 weeks): 441 mg/kg/day
carcinogen call (rat, strain Fischer 344, females, in feed, site: liver, lesion: one or several types, types not named, dosed 52 weeks, study length 69 weeks): negative (inactive)
TD50 (rat, strain Fischer 344, males, in feed, site: liver, lesion: hepatocellular carcinoma, dosed 52 weeks, study length 69 weeks): 699 mg/kg/day (inactive)
